In patent US6740662B1, “Naphthyridine derivatives” (Yamanouchi Pharmaceutical Co., Ltd., priority 1999, dated 2004):

What was measured:
[1] = Oral absorbability and pharmacokinetic profile evaluation test using type IV PDE inhibitory activity as the index; format: in vivo; conditions: orally administered to male Fisher rat at 3 mg/kg; plasma type IV PDE inhibitory activity as index; in comparison with a comparative compound
Experimental: Test Example 3. Oral absorbability and pharmacokinetic profile evaluation test using type IV PDE inhibitory activity as the index
The following assay was carried out in order to evaluate oral absorbability and pharmacokinetic profiles of the type IV PDE-inhibiting compounds of the invention.
1) Each test compound suspended in purified water containing 0.5% methyl cellulose was orally administered to a seven-week-old male Fisher rat at a dose of 3 mg/kg. In the control group, a solvent (0.5% methyl cellulose in purified water, 3 ml/kg) was administered in the same manner. After the oral administration, blood samples were periodically collected in the presence of heparin from the caudal vein of each rat under ether anesthesia, and plasma was prepared in the usual way.
2) The plasma prepared from each rat administered with the test compound or solvent was added to the type IV PDE measuring system shown in the above Test Example 1 so as to be a final concentration of 0.1%, and the type IV PDE inhibitory activity was measured.

[2] = test system: P450 drug metabolizing enzyme present in the liver microsome; assay: In vitro drug metabolism test using liver microsome; format: in vitro ADME; conditions: human and rat liver microsome, test compound 20 ng/ml, 37° C., 10, 20 and 30 minutes, residual ratio
Experimental: 1) Human and rat liver microsome suspension (human microsome: Xenotech, rat microsome: Charles River) was diluted with 100 mM Na-K phosphate buffer (pH 7.4) to a protein concentration of 0.5 mg/ml. To a 100 μl portion of this suspension were added 2 μl of a test compound solution (a 10 μg/ml acetonitrile solution), 500 μl of 200 mM Na-K phosphate buffer (pH 7.4), 50 μl of 1 mM EDTA-NaOH (pH 7.4) and 200 μl of purified water, thereby preparing a substrate solution (concentration in the reaction solution: liver microsome (as the protein content) 0.05 mg/ml, test compound 20 ng/ml, 100 mM Na-K phosphate buffer, 0.1 mM EDTA-NaOH).
2) An NADPH production system was prepared by mixing 42 mg of NADP, 5 ml of 100 mM […] (G6P) and 5 ml of 100 mM MgCl2, and adding 57 μl of G6P dehydrogenase (about 1750 U/5 mg/ml) to the mixture. This was heated at 37° C. for 5 minutes and then ice-cooled until its use.
3) A 900 μl portion of the substrate solution was pre-incubated at 37° C. for 5 minutes, and then 100 μl of the NADPH production system was added thereto, following by reaction at 37° C. for 10, 20 and 30 minutes. After termination of the reaction by adding 2 ml of ethyl acetate, the whole was ice-cooled. In this connection, a control sample was prepared by adding 100 μl of the NADPH production system after adding 2 ml of ethyl acetate (0 minute reaction).
4) To the reaction solution was added 100 μl of an internal standard substance having a predetermined concentration (an acetonitrile solution), 1 ml of 0.5 M phosphoric acid and 2 ml of ethyl acetate, followed by shaking for 10 minutes. After 10 minutes of centrifugation at 2,500 rpm, the ethyl acetate layer was separated and evaporated to dryness, and the residue was dissolved in 100 μl of an HPLC mobile phase solvent. The test compound was eluted after about 12 minutes, and the internal standard substance after about 16 minutes, under the following conditions. (HPLC measuring conditions mobile phase: acetonitrile/20 mM ammonium acetate=2:3 (v/v), column: Discovery RP Amide C16, 4.6×35 mm (SUPELCO), flow rate: 0.8 ml/min., detection: UV 286 nm)
5) A ratio (residual ratio) of the peak height ratio after 10, 20 or 30 minutes of the reaction to the peak height ratio of each test compound in the control (peak height ratio to the internal standard substance) was calculated.

CCn1c(=O)c(CCC(=O)O)c(-c2cccc(Cl)c2)c2ccc(C=NO)nc21 [Example 43, 3-[4-(3-chlorophenyl)-1-ethyl-7-hydroxyiminomethyl-2-oxo-1,2-dihydro-1,8-naphthyridin-3-yl]propanoic acid]
oral absorbability and metabolic stability [1]: good oral absorbability and metabolic stability
metabolism by the P450 drug metabolizing enzyme present in the liver microsome [2]: hardly metabolized
melting point: 234 to 238 °C
